The source of these data is patent US20210260051A1, “COMBINATION OF EZH2 INHIBITOR AND CHECKPOINT THERAPY FOR THE TREATMENT OF CANCER” (Board of Regents, The University of Texas System, priority 2018, published 2021).

The conditions of data set [1]: patients, continuous daily dosing; cited from earlier work.
Data set [2] concerns murine inducible regulatory T cell (iTreg) differentiation. Put plainly: in vitro differentiation of murine naïve CD4 T cells into inducible regulatory T cells with EZH2 inhibitors. In kind it is cell-based, mouse. Conditions: compared with the other EZH2 inhibitors; FIG. 4A. An excerpt: FIGS. 4A-B: (FIG. 4A) Percentages of inducible regulatory T cells following in vitro differentiation of murine naïve CD4 T cells into regulatory T cells in the presence and absence of various EZH2 inhibitors. (FIG. 4B) Representative counts of viable cells in culture following treatment with EZH2 inhibitors. Data is representative of three independent experiments. One-way ANOVA was used to determine significance between the groups. **p<0.01.
To investigate whether the data observed in the FoxP3^creEZH2^fl/fl mouse model could be recapitulated by pharmacological inhibition of EZH2 in T cells, the effect of different EZH2 inhibitors on regulatory T cell differentiation was compared. CPI-1205 was compared with commercially available EZH2 inhibitors.
In vitro T cell assays. Human peripheral regulatory T cells were isolated from peripheral blood mononuclear cells by enriching for CD4^+CD127^low CD25^+ cells using the EasySep Human Regulatory T Cell Isolation Kit (STEMCELL Technologies, Cambridge, Mass.). For mouse in vitro regulatory T cell differentiation, CD4^+CD25^low CD44^low CD62L^hinaïve splenic T cells were isolated from C57BL/6 mice using BD FACSAria (BD Biosciences, San Jose, Calif.). The cells were then differentiated in the presence of recombinant murine IL-2 (R&D, 402-ML), tumor growth factor-β (TGF-β, R&D 7666-MB), CPI-1205 or dimethyl sulfoxide (DMSO) and cultured for 6 days.

For the next data set, the system named is MB49 (bladder) tumor. Put plainly: MB49 tumor-bearing C57BL/6 mice. In kind it is in vivo. The source says: FIGS. 3A-3F: Blocking expression of EZH2 mediated by anti-CTLA-4 using CPI-1205 increases the effectiveness of anti-CTLA-4 therapy. Tumor growth (FIG. 3A), survival (FIG. 3B) and percentages of intra-tumoral CD4^+CD25^+FoxP3^+ regulatory T cells, CD4^+ICOS^+T-bet^+ and CD8^+IFNγ^+ cells (FIG. 3C) in MB49 tumor-bearing mice treated with vehicle, anti CTLA-4, CPI-1205, or the combination. Tumor growth (FIG. 3D) and percentages of CD4^+IFNγ^+ cells and CD8^+TNFα^+ cells in the lymph nodes (LN) (FIG. 3E) of MB49 tumor-bearing Ezh2^fl/+ and FoxP3^CreEzh2^fl/fl mice treated with anti-CTLA-4 on days 7 and 9. (FIG. 3F) Tumor growth and survival of MB49 tumor-bearing Rag-1^−/− mice treated with vehicle or CPI-1205. Data are representative of three independent experiments (n=10 in each group; one-way ANOVA was used to determine significance between the groups. **p<0.01).
It was evaluated whether the combination of anti-CTLA-4 with CPI-1205 increases the effectiveness of anti-CTLA-4. MB49 (bladder) and B 16-F10 (melanoma) tumor-bearing C57BL/6 mice were treated with anti-CTLA-4 and the EZH2 inhibitor CPI-1205 as monotherapies and in combination.
Cell lines and tumor model. Murine bladder cancer cell line (MB49) were provided by Dr. A. Kamat (at The University of Texas MD Anderson Cancer Center) and murine melanoma cell line B16-F10 was obtained from Dr. I. Fidler (The University of Texas MD Anderson Cancer Center). 2×10^5 (MB49) or 2×10^5 (B16-F10) cells were injected subcutaneously or intradermally respectively, in the flanks of C57BL/6 mice (5 or 10 mice per group). […]
Tissue processing and flow cytometry. […] Staining with intracellular anti-Foxp3 (eBioscience, FJK-16 s), […] (eBioscience, PC61.5), antiKi-67 (eBioscience, SolA15), antiIFN-γ (BioLegend, XMG1.2), anti-TNF-α (BioLegend, MP6-XT22), and anti-EZH2 (Cell Signaling Technology, D2C9) were analyzed by flow cytometry according to the manufacturers’ instructions. Flow cytometry data were acquired on BD LSR II (BD Biosciences) and analyzed using FlowJo software (Tree Star, Ashland, Oreg.).

For data set [3], the system named is CXCL9 and CXCL10 in MB49 tumor. The experiment in a line: relative CXCL9 and CXCL10 expression in tumor of MB49 tumor-bearing mice. In kind it is in vivo, mouse. Conditions: FIG. 10C-D.

Take `COc1cc(C)[nH]c(=O)c1CNC(=O)c1c(C)n([C@H](C)C2CCN(CC(F)(F)F)CC2)c2ccccc12` [CPI-1205, N-[(4-methoxy-6-methyl-2-oxo-1H-pyridin-3-yl)methyl]-2-methyl-1-[(1R)-1-[1-(2,2,2-trifluoroethyl)piperidin-4-yl]ethyl]indole-3-carboxamide]: in data set [1], the dose-limiting toxicities entry is on record as “no dose-limiting toxicities” and the tolerability entry was “well tolerated”. The “suppression of murine inducible regulatory T cell (iTreg) differentiation” value in data set [2] is on record as “most striking effect”. For the same compound, in the data set on MB49 (bladder) tumor (in vivo in the murine model (model not named)), the “proportion of tumor-infiltrating cytotoxic T cells” value is “enhanced”. Also, in the data set on MB49 (bladder) tumor (model not named), the B cell abundance result was “no difference” and the myeloid cells entry is “effected certain subsets”. Further, in data set [3], the “CXCL9 expression in tumor” value was “increased” and the “CXL10 expression in tumor” value is given as “increased”.
